The numbers were not newly measured in US10864193B2, “Parasiticidal compositions comprising fipronil at high concentrations” (BOEHRINGER INGELHEIM ANIMAL HEALTH USA INC., priority 2014, dated 2020), which cites them from elsewhere.

For the series the following is noted: beagle dogs, spot-on administration, 14C radiolabeled drug.

`N#Cc1nn(-c2c(Cl)cc(C(F)(F)F)cc2Cl)c(N)c1[S+]([O-])C(F)(F)F` (stereo not shown) [fipronil, 5-amino-3-cyano-1-(2,6-dichloro-4-trifluoromethylphenyl)-4-trifluoromethylsulfinylpyrazole]: the “time persistently detected in the whole skin after treatment” value is given as “up to 56 days”.
